ChEMBL document CHEMBL1201862, “PubChem BioAssay data set” (2004)
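96-well plates; 48 h exposure; 5 concentrations. Endpoints by linear interpolation between flanking doses. Not reached: highest tested concentration assigned. At the GI50, growth is halved.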 Activity calls are given as the source filed them. Cut-off read from the data, not from the text of the source: active = GI50 up to about 1.1 µM and inactive = higher.

What was measured:
Experiment in all cases: NCI-60 cell line screen, 48 h
OVCAR-4 = tested on: OVCAR-4
HCC 2998 = tested on: HCC 2998
MOLT-4 = tested on: MOLT-4
SNB-75 = tested on: SNB-75
COLO 205 = tested on: COLO 205
SK-MEL-28 = tested on: SK-MEL-28
MDA-MB-435 = tested on: MDA-MB-435
DU-145 = tested on: DU-145
NCI/ADR-RES = tested on: NCI/ADR-RES
RPMI-8226 = tested on: RPMI-8226
MCF7 = tested on: MCF7
SK-MEL-2 = tested on: SK-MEL-2
OVCAR-8 = tested on: OVCAR-8
OVCAR-5 = tested on: OVCAR-5
U-251 = tested on: U-251
NCI-H522 = tested on: NCI-H522
SF-295 = tested on: SF-295
UACC-257 = tested on: UACC-257
HCT-116 = tested on: HCT-116
HL-60 = tested on: HL-60

Measured: GI50

O=C(O)CCCOc1cc(-c2ccccc2F)nc2cc3c(cc12)OCO3
inactive: OVCAR-4 45.9 µM | HCC 2998 46.1 µM | MOLT-4 5.9 µM | SNB-75 6.56 µM | COLO 205 3.47 µM | SK-MEL-28 7.89 µM | MDA-MB-435 3.18 µM | DU-145 5.75 µM | NCI/ADR-RES 4.65 µM | RPMI-8226 3.73 µM | MCF7 5.35 µM | SK-MEL-2 4.99 µM | OVCAR-8 5.66 µM | OVCAR-5 8.32 µM | U-251 5.46 µM

c1cc(CCN2CCCCC2)ccn1
inactive: NCI-H522 > 100 µM | OVCAR-4 > 100 µM | MOLT-4 35.2 µM | SNB-75 > 100 µM | COLO 205 > 100 µM | SF-295 > 100 µM | SK-MEL-28 > 100 µM | MDA-MB-435 > 100 µM | UACC-257 > 100 µM | DU-145 > 100 µM | NCI/ADR-RES > 100 µM | HCT-116 > 100 µM | RPMI-8226 > 100 µM | MCF7 > 100 µM | SK-MEL-2 > 100 µM | OVCAR-8 > 100 µM | OVCAR-5 > 100 µM | U-251 > 100 µM

ClC(Cl)(Cl)C(N1CCN(c2ccccc2)CC1)N1CCN(c2ccccc2)CC1
inactive: NCI-H522 > 100 µM | OVCAR-4 > 100 µM | MOLT-4 > 100 µM | SNB-75 > 100 µM | COLO 205 > 100 µM | SK-MEL-28 > 100 µM | MDA-MB-435 > 100 µM | UACC-257 > 100 µM | DU-145 > 100 µM | NCI/ADR-RES > 100 µM | HCT-116 > 100 µM | RPMI-8226 > 100 µM | MCF7 > 100 µM | SK-MEL-2 > 100 µM | OVCAR-8 > 100 µM | OVCAR-5 > 100 µM | U-251 > 100 µM

C=C1C(=O)OC2/C=C(/CO)C3(O)CC(O)C(C)(CC(OC(=O)/C(C)=C/C)C12)O3 (stereo not given)
inactive: NCI-H522 2.4 µM | OVCAR-4 22.3 µM | HCC 2998 10.6 µM | MOLT-4 2.47 µM | SNB-75 39.2 µM | COLO 205 4.73 µM | SF-295 36.3 µM | SK-MEL-28 7.64 µM | MDA-MB-435 9.42 µM | UACC-257 15.4 µM | DU-145 18.5 µM | HCT-116 6.73 µM | RPMI-8226 2.51 µM | MCF7 6.73 µM | SK-MEL-2 22.4 µM | OVCAR-8 7.66 µM | OVCAR-5 21 µM | HL-60 6.21 µM | U-251 18.5 µM

Cc1n[n+](CC(=O)c2ccccc2)c2sc(N)nn12
inactive: NCI-H522 > 100 µM | OVCAR-4 > 100 µM | MOLT-4 > 100 µM | SNB-75 > 100 µM | COLO 205 > 100 µM | SF-295 > 100 µM | SK-MEL-28 > 100 µM | MDA-MB-435 > 100 µM | UACC-257 > 100 µM | DU-145 > 100 µM | NCI/ADR-RES > 100 µM | HCT-116 > 100 µM | RPMI-8226 > 100 µM | MCF7 > 100 µM | SK-MEL-2 > 100 µM | OVCAR-8 > 100 µM | OVCAR-5 > 100 µM | U-251 > 100 µM

O=C1CCCCCCCCCCC1CN(Cc1ccccc1)Cc1ccccc1 (stereo not given)
inactive: NCI-H522 41.3 µM | OVCAR-4 > 100 µM | HCC 2998 28.8 µM | MOLT-4 17.3 µM | SNB-75 2.84 µM | COLO 205 > 100 µM | SF-295 32.6 µM | SK-MEL-28 37.7 µM | MDA-MB-435 37.1 µM | UACC-257 32.2 µM | DU-145 59 µM | HCT-116 17.3 µM | RPMI-8226 22.2 µM | MCF7 23.7 µM | OVCAR-8 75.3 µM | OVCAR-5 > 100 µM | HL-60 23.9 µM | U-251 18.8 µM

Cc1ccc2c(c1)CC1(C2=O)[C@H](c2ccccc2)C2C(=O)c3ccc(C)cc3C2[C@H]1c1ccccc1 (stereo not given in full)
inactive: NCI-H522 > 100 µM | OVCAR-4 > 100 µM | HCC 2998 43 µM | MOLT-4 43.8 µM | SNB-75 > 100 µM | COLO 205 > 100 µM | SF-295 > 100 µM | SK-MEL-28 > 100 µM | MDA-MB-435 > 100 µM | UACC-257 > 100 µM | DU-145 > 100 µM | HCT-116 24.9 µM | MCF7 69.8 µM | OVCAR-8 > 100 µM | OVCAR-5 > 100 µM | HL-60 43.1 µM | U-251 > 100 µM

Cc1c[n+]([O-])c2ccccc2[n+]1[O-]
inactive: NCI-H522 > 100 µM | OVCAR-4 > 100 µM | MOLT-4 > 100 µM | SNB-75 > 100 µM | COLO 205 > 100 µM | SF-295 > 100 µM | SK-MEL-28 > 100 µM | MDA-MB-435 > 100 µM | UACC-257 > 100 µM | DU-145 > 100 µM | NCI/ADR-RES > 100 µM | HCT-116 > 100 µM | RPMI-8226 > 100 µM | MCF7 > 100 µM | SK-MEL-2 > 100 µM | OVCAR-8 > 100 µM | OVCAR-5 > 100 µM | U-251 > 100 µM

O=[N+]([O-])C(=C(Nc1ccccc1)Nc1ccccc1)/C(Cl)=C(\Cl)[N+](=O)[O-]
inactive: OVCAR-4 6.62 µM | HCC 2998 12.2 µM | MOLT-4 2.43 µM | SNB-75 7.57 µM | COLO 205 2.67 µM | SF-295 9.35 µM | SK-MEL-28 3.62 µM | MDA-MB-435 3.26 µM | UACC-257 5.97 µM | DU-145 2.65 µM | NCI/ADR-RES 3.81 µM | HCT-116 2.73 µM | RPMI-8226 3.15 µM | MCF7 4.14 µM | SK-MEL-2 9.84 µM | OVCAR-8 1.44 µM | OVCAR-5 8.13 µM | U-251 4.92 µM

Nc1nc(-c2ccccc2)c(Cl)c(-c2cc(Cl)ccc2O)n1
inactive: NCI-H522 11.6 µM | OVCAR-4 15.3 µM | HCC 2998 > 81.1 µM | MOLT-4 > 100 µM | SNB-75 13.7 µM | COLO 205 > 100 µM | SF-295 48.4 µM | SK-MEL-28 91.2 µM | MDA-MB-435 > 100 µM | UACC-257 > 100 µM | DU-145 11.1 µM | HCT-116 13.4 µM | RPMI-8226 > 86.7 µM | MCF7 2.04 µM | SK-MEL-2 38.4 µM | OVCAR-8 14 µM | OVCAR-5 > 60 µM | HL-60 > 42.9 µM | U-251 15.2 µM

CNC(=O)C1CCC(=O)N1CN(C(C)=O)c1ccccc1 (stereo not given)
inactive: NCI-H522 > 100 µM | OVCAR-4 > 100 µM | MOLT-4 > 100 µM | SNB-75 > 100 µM | COLO 205 > 100 µM | SF-295 > 100 µM | SK-MEL-28 > 100 µM | MDA-MB-435 > 100 µM | UACC-257 > 100 µM | DU-145 > 100 µM | NCI/ADR-RES > 100 µM | HCT-116 > 100 µM | RPMI-8226 > 100 µM | MCF7 > 100 µM | SK-MEL-2 > 100 µM | OVCAR-8 > 100 µM | OVCAR-5 > 100 µM | U-251 > 100 µM
